Test results: patent US12133901B2, “PSMA ligand targeted compounds and uses thereof” (CASE WESTERN RESERVE UNIVERSITY, priority 2019, dated 2024)
Numbered stars: 1 amine (or outer) side, 2 acyl side, 3 side chain; on linkers, the order of the positions; unused ones are H or OH. Square brackets hold non-standard residues; d marks the D form. Peptide text beside a SMILES is read from it. γGlu = O=C(O)[C@H](CCC(=O)[*:2])N[*:1]; X1 = O=C(C1CCC(CN[*:1])CC1)[*:2]; CO = O=C([*:1])[*:2]; Ahx = NCCCCCC(=O)O

Molecular target: T1, PSMA (Homo sapiens, UniProt Q04609)
T1 construct: LNcap cells were trypsinized and washed with cold Tris buffer; endogenous in cells; host or cells: LNCaP cells (printed 'LNcap'), whole-cell suspension
T1 sequence (Q04609 whole entry): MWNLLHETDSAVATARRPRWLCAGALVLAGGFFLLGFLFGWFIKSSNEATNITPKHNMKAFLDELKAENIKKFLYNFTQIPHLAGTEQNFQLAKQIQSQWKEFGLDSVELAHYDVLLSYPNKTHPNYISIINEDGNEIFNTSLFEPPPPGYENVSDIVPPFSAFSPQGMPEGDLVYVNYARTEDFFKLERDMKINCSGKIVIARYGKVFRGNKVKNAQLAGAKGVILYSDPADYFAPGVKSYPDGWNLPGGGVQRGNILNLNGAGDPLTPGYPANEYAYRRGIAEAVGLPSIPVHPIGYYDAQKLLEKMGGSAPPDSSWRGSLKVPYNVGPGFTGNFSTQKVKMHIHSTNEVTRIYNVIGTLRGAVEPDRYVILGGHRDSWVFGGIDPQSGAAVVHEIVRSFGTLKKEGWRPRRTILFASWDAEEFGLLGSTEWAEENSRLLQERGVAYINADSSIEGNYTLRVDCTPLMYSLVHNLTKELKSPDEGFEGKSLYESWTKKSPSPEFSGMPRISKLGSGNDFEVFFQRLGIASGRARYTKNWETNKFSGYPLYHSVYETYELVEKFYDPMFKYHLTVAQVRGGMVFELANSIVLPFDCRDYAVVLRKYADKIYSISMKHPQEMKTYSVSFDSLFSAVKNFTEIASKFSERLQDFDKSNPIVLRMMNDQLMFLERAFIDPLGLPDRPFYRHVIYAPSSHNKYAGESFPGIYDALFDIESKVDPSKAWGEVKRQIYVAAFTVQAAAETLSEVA
Experiment: Competition binding assay against 3H-ZJ24
Conditions: PSMA-expressing LNcap cells, 12 nM 3H-labelled ZJ24, 1 h at 37° C.; read-out: IC50 (concentration of ligand required to inhibit 50% of binding)
Procedure: LNcap cells were trypsinized and washed with cold Tris buffer (0.5 mM). […] Each group was done in triplicate. The mixture was then centrifuged and washed three times with cold PBS. Finally, 4 m L of EcoLume cocktail (MP biomedicals) was added to each sample, and radioactivity was counted by a scintillation counter. The concentration of ligands required to inhibit 50% of binding (IC50) was determined by GraphPad Prism 3.0.

| IC50 | SMILES |
| --- | --- |
| 1.69 nM | NCCCC[C@H](NC(=O)[C@H](CCC(=O)O)NC(=O)[C@H](CCC(=O)O)NC(=O)[C@H](CCC(=O)O)NC(=O)CCCCCNC(=O)C1CCC(CNC(=O)CC[C@H](NC(=O)N[C@@H](CCC(=O)O)C(=O)O)C(=O)O)CC1)C(=O)N[C@@H](Cc1ccc(O)cc1)C(=O)N[C@@H](CS)C(N)=O (stereo partly drawn) [CY-PSMA-1, Glu-CO-Glu′-Amc-Ahx-Glu-Glu-Glu-Lys-Tyr-Cys-NH2] ({Glu-CO-γGlu}-[X1][Ahx]EEEKYC-NH2) |
| 8.31 nM | CSC[C@H](NC(=O)N[C@@H](CCC(=O)O)C(=O)O)C(=O)O [ZJ24] |
